Legend:
[1] = tested on: isolated rat liver mitochondria; experiment: Mitochondrial swelling (absorbance at 535 nm); format: biochemical
[2] = tested on: isolated rat liver mitochondria; experiment: Mitochondrial oxygen consumption (glutamate/malate or succinate driven, state 4 and state 3); format: biochemical
Method in brief: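 Rat liver mitochondria (1 mg/ml protein) exposed 5 min to kinase inhibitors in 0.1% DMSO, then O2 consumption measured by Clark-type electrode with glutamate/malate or succinate (state 4), ADP added after 3 min (state 3). Rates normalized to 0.1% DMSO controls set to 1.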

RCC V = RCC V activity in submitochondrial particles; format: biochemical, rat; settings: 30-fold Cmax; 15 min; DMSO-treated = 100
Method in brief: (§1)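 Kinase inhibitors were preincubated 15 min with submitochondrial particles (1 mg/ml) before complex activities were measured. RCC I was the rotenone-sensitive portion (activity without minus with rotenone). RCC I/V was read at 340 nm and RCC II at 600 nm every 1 min for 6 min. RCC III and IV were read at 550 nm every 10 s for 2 min. Activities are normalized to DMSO controls set as 1.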

RCC III = RCC III activity in submitochondrial particles; format: biochemical, rat; settings: 30-fold Cmax; 15 min; DMSO-treated = 100
Method in brief: as §1

[3] = tested on: isolated rat liver mitochondria; experiment: Mitochondrial inner membrane potential (MMP), Rhodamine 123; format: biochemical
Description: Fig. 3 KI effects on mitochondrial inner membrane potential (MMP). […] In a, c, data are means and standard derivations from three separate experiments. *p < 0.05 as compared to DMSO-treated samples at the end of experiments. In b, data are means of two independent experiments

[4] = ref FDA product labeling; cited from earlier work
RCC I–V = experiment: Activities of RCC I–V, overall statements; format: biochemical, rat; settings: submitochondrial particles, up to 100-fold Cmax or highest testable concentration
Method: KIs were incubated with submitochondrial particles (1 mg/ml) for 15 min and then RCC I–V activities measured. […] The activities of DMSO-treated samples (controls) were set as 1. […] The difference between the activity from rotenone-containing buffer and rotenone-absent buffer was considered as RCC I activity. […] For measuring RCC I/V and II activity, the changes in absorbance at 340 and 600 nm, respectively, were determined every 1 min for 6 min. For measuring RCC III and RCC IV, the changes in absorbance at 550 nm were measured every 10 s for 2 min.

[5] = human therapeutic Cmax at FDA recommended dosages; ref product labeling and drug approval packages at the official FDA website; cited from earlier work
RCC IV = RCC IV activity in submitochondrial particles; format: biochemical, rat; settings: 30-fold Cmax; 15 min; DMSO-treated = 100
Method in brief: as §1

RCC I = RCC I activity in submitochondrial particles; format: biochemical, rat; settings: 30-fold Cmax; 15 min; DMSO-treated = 100
Method in brief: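 Abs 340 nm (I/V) or 600 nm (II), 1-min reads × 6 min; 550 nm (III, IV), 10-s reads × 2 min. RCC I = rotenone-free minus rotenone rate. DMSO control = 1.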

[6] = tested on: isolated rat liver mitochondria; experiment: Mitochondrial toxicity, any endpoint, intact mitochondria and submitochondrial particles; format: biochemical; settings: any endpoint
Method in brief: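 Rat liver mitochondria isolated by differential centrifugation in sucrose/Tris-MOPS/EGTA buffer pH 7.4, adjusted to 1 mg/ml protein before treatment. Kinase inhibitors added at 1:1000 dilution of stock; final DMSO 0.1%, with 0.1% DMSO controls.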

[7] = 10-fold Cmax, oxygen consumption, DMSO-treated = 1
[8] = 20-fold Cmax, oxygen consumption, DMSO-treated = 1
[9] = 30-fold Cmax, oxygen consumption, DMSO-treated = 1

In the case of `COc1cc2nccc(Oc3ccc(NC(=O)C4(C(=O)Nc5ccc(F)cc5)CC4)cc3)c2cc1OC` [Cabozantinib], the “lowest concentration causing mitochondrial swelling” value [1] was 20 fold Cmax, the “effect on mitochondrial swelling” value ([1]; up to 100-fold Cmax or highest testable concentration, 25 µM calcium chloride) was “significant mitochondrial swelling” and the “Glutamate/malate driven respiration State 4” value [2, 7] was 1.46 ± 0.08. The “Succinate-driven respiration State 3” value [2, 7] was 1.03 ± 0.01, the “Succinate-driven respiration State 4” value [2, 7] was 1.23 ± 0.11 and the “Glutamate/malate driven respiration State 3” value [2, 8] was 0.92 ± 0.05. For the same molecule, the “Glutamate/malate driven respiration State 4” value [2, 8] was 1.30 ± 0.15, the “Succinate-driven respiration State 3” value [2, 8] was 0.94 ± 0.06 and the “Succinate-driven respiration State 4” value [2, 8] was 1.24 ± 0.05. For the same molecule, the “Glutamate/malate driven respiration State 4” value [2, 9] was 1.55 ± 0.06, the “Succinate-driven respiration State 3” value [2, 9] was 0.95 ± 0.05 and the “Succinate-driven respiration State 4” value [2, 9] was 1.35 ± 0.18. The “effect on state 4 respiration” value ([2]; highest tested concentrations) was “significant increases”, the “lowest concentration significantly affecting mitochondrial oxygen consumption” value ([2]; tested at 1 to 100-fold Cmax) was “tenfold” and the “RCC activity V” value (RCC V) was 91.99 ± 8.51 % of control. For the same molecule, the “RCC activity III” value (RCC III) was 90.73 ± 14.60 % of control, the “lowest concentration decreasing MMP” value [3] was “tenfold” and the “effect on MMP” value ([3]; up to 100-fold Cmax or highest testable concentration) was “decrease in MMP”. The “DILI potential (based on labeling)” value [4] was 0, the RCCs inhibited (RCC I–V) was “both RCC I and RCC II” and the Cmax [5] was 2580 nM. The “RCC activity IV” value (RCC IV) was 113.10 ± 9.48 % of control, the “RCC activity I” value (RCC I) was 80.97 ± 2.99 % of control and the “lowest concentration causing significant mitochondrial toxicity” value [6] was 10 fold Cmax.

Source: PMC5515969, “Effects of 31 FDA approved small-molecule kinase inhibitors on isolated rat liver mitochondria” (Archives of Toxicology, 2016)
